Test results from patent US6150126A, “Daphnia reproductive bioassay for testing toxicity of aqueous samples and presence of an endocrine disrupter” (Wisconsin Alumni Research Foundation, priority 1998, dated 2000).
Where two headings read alike, the source gives them in different places.

Columns and labels:
retinoid X receptors = conditions: cited from earlier work
Daphnia [1] = conditions: in vivo; cited from earlier work
[2] = system: Daphnia galeata mendotae Wingra CDF-1 clone; conditions: in vivo
vertebrate systems = conditions: cited from earlier work
Daphnia [3] = conditions: in vivo; cited from earlier work; remark: listed apart in the source
[4] = system: Daphnia galeata mendotae (CDF-1 clone); conditions: in vivo
Daphnia [5] = conditions: in vivo, cited from earlier work
Daphnia carinata = conditions: in vivo; cited from earlier work
[6] = system: Daphnia galeata-mendotae (clone CDF-1); conditions: in vivo
Daphnia [7] = conditions: in vivo; cited from earlier work; remark: listed apart in the source
D. magna [8] = conditions: daphnia, in vivo, cited from earlier work
fish, mammals and birds = conditions: cited from earlier work
D. magna [9] = conditions: daphnia, in vivo; cited from earlier work
Daphnia [10] = conditions: in vivo, 48 h

COC(C)(C)CCC[C@H](C)C/C=C/C(C)=C/C(=O)OC(C)C (racemic) [methoprene]
Gene transcription in mammals via retinoid X receptors (retinoid X receptors): can stimulate gene transcription in mammals by activating retinoid X receptors

ClC1=C(Cl)[C@]2(Cl)[C@@H]3[C@@H]4C[C@@H]([C@H]5O[C@@H]45)[C@@H]3[C@@]1(Cl)C2(Cl)Cl [Dieldrin, dieldrin]
Effect on sex ratio (Daphnia [1]): no effect of dieldrin on sex ratio
Effect versus controls (sex ratio, males) [2]: no difference
Estrogenicity (vertebrate systems): weakly estrogenic
Concentration below which little or no effect on population growth rate (Daphnia [3]): about 220 ppb
Concentration of no effect on sex ratio / above which sex ratio is reduced ([4]; daphnia): about 30 ppb
X intercept of regression line of sex ratio index vs log dieldrin ([4]; daphnia): 31 ppb
Adult survival or clutch size, effect [4]: Neither insecticide significantly affected adult survival or clutch size
Endocrine disruption activity [4]: shows endocrine disruption activity in Daphnia
Morphological abnormalities [4]: Neither insecticide caused morphological abnormalities
Regression line, sex ratio index (Y) vs log ppb dieldrin (X) [4]: Y=-0.0195X+0.299

O=S1OCC2C(CO1)C1(Cl)C(Cl)=C(Cl)C2(Cl)C1(Cl)Cl (stereo not drawn) [Endosulfan, endosulfan]
Effect versus controls (sex ratio, males) [2]: a tendency for a reduction of males
Estrogenicity (vertebrate systems): weakly estrogenic
Adult survival or clutch size, effect [4]: Neither insecticide significantly affected adult survival or clutch size
Morphological abnormalities [4]: Neither insecticide caused morphological abnormalities
Sex ratio, effect [4]: No endosulfan effect was observed
Lowest concentration with reported morphological changes (Daphnia [5]; daphnia): 0.1 μgL^-1
Concentration affecting Daphnia population growth (Daphnia [5]): about 120 ppb
Concentration reducing filtration and assimilation rates (Daphnia [5]): 440-600 ppb
Concentrations reducing body length and weight, egg mass and brood size (Daphnia carinata): 40-160 ppb

nonylphenol
Live young with deformity [6]: 11%
Population growth rate r [6]: nonlinear pattern
Survival [6]: low survival
Developmental deformity (Daphnia [7]): cause a characteristic deformity
Chronic LC50 (D. magna [8]; 168 h): 0.12 µg/mL
Chronic LC50 (D. magna [8]; 336 h): 0.12 µg/mL
Chronic LC50 (D. magna [8]; 504 h): 0.1 µg/mL
Estrogenicity (fish, mammals and birds): estrogenic to fish, mammals and birds
No-observed effect concentration (NOEC) (D. magna [9]): 24 μgL-L^-1
Mortality (Daphnia [10]): 100%
